A short description of assay [1]: Carrageenan-induced paw edema in the rat (anti-inflammatory activity). Conditions: 3 h, 10 mg/Kg, oral, female rats, read-out: % inhibition of increase in hind paw weight. It is filed as in vivo. Here is the method: The anti-inflammatory activity of compounds of this invention was determined by measuring the inhibition of carrageenan-induced paw edema in the rat, using a modification of the method described in Winter C. k et al (1962) "Carrageenan-Induced Edema in Hind Paw of the Rat as an Assay for Anti-inflammatory Drugs". Proc. Soc. Exp. Biol. Med. 111: 544-547. This assay has been used as a primary in vivo screen for anti-inflammatory activity of most NSAIDs, and is considered predictive of human efficacy. Briefly, test materials were administered orally to female rats in a volume of 1 ml prepared as solutions or suspensions in an aqueous vehicle containing 0.9% NaCl, 0.5% sodium carboxymethyl-cellulose, 0.4% polysorbate 80, 0.9% benzyl alcohol and 97.3% distilled water. Control rats received vehicle alone. After 1 hr 0.05 ml of a 0.5% solution of Carrageenan (Type IV Lambda, Sigma Chemical Co.) in 0.9% saline was injected into the subplantar region of the right hind paw. Three hours later the rats were euthanized in a carbon dioxide atmosphere; hind paws were removed by severing at the tatso-crural joint; and the left and right paws were weighed. The increase in weight of the right paw over the left paw was obtained for each animal and the mean increases were calculated for each group. The anti-inflammatory activity of the test materials is expressed as the percent inhibition of the increase in hind paw weight of the test group relative to the vehicle-dosed control group.
The anti-inflammatory activities (expressed as % inhibition) of some of the compounds of the invention were: […]
Background: Carrageenan injected into the paw causes an acute inflammation.

Assay [2] relates to prostaglandin E2 synthesis. Put plainly: Inhibition of eicosanoid (PGE2) synthesis in vivo, carrageenan air-pouch model in rats. Particulars: oral, male rats. Also noted: species or system rat. Here is the method: In this assay, an air-pouch is created in the rat and the PGE2 levels in the air-pouch exudate are measured by enzyme immunoassay. Briefly, male rats were anesthetized using a 60:40 CO2 :O2 mixture and subsequently injected subcutaneously with 20 ml of sterilized air, under aseptic conditions, in the proximal area of the dorsum. This injection of sterile air causes the creation of a subcutaneous "air pouch". The next day, a further 10 ml of sterile air was injected into the previously formed pouch using the same technique. […] Control rats received vehicle alone. After 30 minutes, 5 ml of a 0.5% solution of carrageenan (Sigma, Lambda Type IV) was injected into the air pouch. The rats were euthanized 3 hr after the compound administration. […] The total exudate volume was recorded, and the samples were analyzed for PGE2 and 6-keto PGF1 by ELISA (Titerzyme®, PerSeptive Diagnostics) and TxB2 by radioimmuno assay (New England Nuclear Research, Catalog No. NEK-037), according to the manufacturer's directions.
The mean concentrations of PGE2 were calculated for each group. The anti-inflammatory activity of test materials is expressed as the percent inhibition of PGE2 formation in the test group relative to the control group.

The nature of assay [3]: Acetic Acid-induced Rat Writhing Assay (analgesic activity). It is filed as in vivo. Conditions: 10 mg/Kg, oral, male Sprague Dawley rats. The source says:
The analgesic activity of compounds of this invention may be determined by the Acetic Acid-induced Rat Writhing Assay, using a modification of the method described in Berkenkopf, J. W. and Weichman, B. M. "Production of Prostacyclin in Mice following Intraperitoneal Injection of Acetic Acid, Phenylbenzoquinone and Zymosan: Its Role in the Writhing Response". Prostaglandins: 36: 693-70 (1988). This assay is one of several acute assays which have been used to assess the analgesic activity of NSAIDs, and is considered predictive of human efficacy. The test materials were administered orally to male Sprague Dawley rats in a volume of 1 ml/100 g body weight as solutions or suspensions in an aqueous vehicle containing 0.9% NaCl, 0.5% sodium carboxymethyl-cellulose, 0.4% polysorbate 80, 0.9% benzyl alcohol and 97.3% water. Control rats received vehicle alone. One hour after compound administration, 0.3 ml/100 g body weight of 0.75% solution of acetic acid was injected intraperitoneally. The acetic acid injection induces a series of characteristic writhing responses, which were counted over the period between 15 and 30 minutes after the injection. The analgesic activity of test materials is expressed as the percentage inhibition of writhing in the test group relative to the control group.

The target in the next assay is COX I (Homo sapiens, UniProt P23219). Description: Inhibition of COX I in vitro, partially purified enzyme, radiometric assay. In kind it is biochemical. Also noted: made in house. Particulars: 20 micromolar arachidonic acid. Here is the method: (§1) The COX I and COX II inhibitory activity of compounds of this invention in vitro was determined using partially purified COX I and COX II enzymes, prepared as described in J. Barnett et al, Biochim. Biophys.
(§2) COX I and COX II samples were diluted with Tris-HCl buffer (50 mM Tris-HCl, pH 7.9) containing 2 mM EDTA and 10% glycerol and reconstituted by incubating first with 2 mM phenol for 5 minutes and then with 1 micromolar hematin for an additional 5 minutes. 125 μl of the reconstituted COX I or COX II enzyme were preincubated for 10 minutes at room temperature in a shaking water bath with the compounds of the invention dissolved in 2-15 μl of DMSO or the carrier vehicles (control samples). The enzyme reaction was initiated by adding 25 μl of 1-[14C]arachidonic acid (80,000-100,000 cpm/tube; 20 micromolar final concentration) and the reaction was allowed to continue for an additional 45 seconds. The reaction was terminated by adding 100 μl of 2N HCl and 750 μl water. An aliquot (950 μl) of the reaction mixture was loaded onto a 1 ml C18 Sep-Pak column (J. T. Baker, Phillipsburg, N.J.) which had been previously washed with 2-3 ml methanol and equilibrated with 5-6 ml distilled water. Oxygenated products were quantitatively eluted with 3 ml of acetonitrile/water/acetic acid (50:50:0.1, v/v) and the radioactivity in the eluate determined in a scintillation counter.

The target of the next assay is T1, COX II (Homo sapiens, UniProt P35354).
T1 sequence (P35354 18-604): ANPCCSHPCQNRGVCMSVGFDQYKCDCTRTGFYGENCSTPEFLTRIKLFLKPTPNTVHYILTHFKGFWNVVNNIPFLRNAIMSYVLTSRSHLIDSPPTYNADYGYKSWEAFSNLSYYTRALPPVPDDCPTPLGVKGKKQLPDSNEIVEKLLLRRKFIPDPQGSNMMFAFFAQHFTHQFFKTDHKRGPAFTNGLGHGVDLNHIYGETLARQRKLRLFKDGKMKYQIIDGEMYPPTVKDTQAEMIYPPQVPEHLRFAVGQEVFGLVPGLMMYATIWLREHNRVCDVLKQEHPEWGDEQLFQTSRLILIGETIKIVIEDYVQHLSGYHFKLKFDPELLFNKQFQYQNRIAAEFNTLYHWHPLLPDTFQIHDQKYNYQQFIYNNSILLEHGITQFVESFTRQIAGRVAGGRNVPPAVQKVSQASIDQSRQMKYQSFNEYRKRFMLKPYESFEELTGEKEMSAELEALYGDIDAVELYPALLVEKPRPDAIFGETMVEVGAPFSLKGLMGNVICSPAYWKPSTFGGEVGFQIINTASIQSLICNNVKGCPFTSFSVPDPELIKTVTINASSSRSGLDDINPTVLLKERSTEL
Put plainly: Inhibition of COX II in vitro, partially purified enzyme, radiometric assay. In kind it is biochemical. Particulars: 20 micromolar arachidonic acid. Also on record: made in house. The method, then:
as §1, §2

The conditions of assay [4]: Alzheimer's patients; Rogers, J., et. al., Neurology, (1993), 43, 1609; cited from earlier work.

A value given as a limit tells only on which side of the number the result lay.

Chain of COX I (P23219 24-599): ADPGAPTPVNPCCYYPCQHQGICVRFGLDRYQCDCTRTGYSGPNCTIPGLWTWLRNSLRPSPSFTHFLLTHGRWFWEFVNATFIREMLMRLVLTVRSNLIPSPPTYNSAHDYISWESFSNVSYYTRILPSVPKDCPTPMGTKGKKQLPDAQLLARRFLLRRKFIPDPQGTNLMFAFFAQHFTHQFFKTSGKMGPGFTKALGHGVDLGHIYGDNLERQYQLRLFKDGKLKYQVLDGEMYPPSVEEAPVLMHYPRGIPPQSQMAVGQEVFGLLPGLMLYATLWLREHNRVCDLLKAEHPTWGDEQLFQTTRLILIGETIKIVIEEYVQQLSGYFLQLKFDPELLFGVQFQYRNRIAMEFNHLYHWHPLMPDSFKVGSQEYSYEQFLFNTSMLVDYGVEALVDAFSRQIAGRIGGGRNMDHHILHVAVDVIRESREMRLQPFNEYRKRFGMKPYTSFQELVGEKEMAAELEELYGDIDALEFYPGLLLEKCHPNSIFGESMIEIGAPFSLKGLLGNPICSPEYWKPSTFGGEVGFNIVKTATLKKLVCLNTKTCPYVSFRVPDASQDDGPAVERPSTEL

With `COc1ccc(C(=O)c2cccc(Cc3ccc(=O)[nH]n3)c2Cl)cc1` [Cpd 2, 6-[3-(4-methoxybenzoyl)-2-chlorobenzyl]-2H-pyridazin-3-one], the inhibition in vivo at 10 mg/kg in assay [1] was found to be 20%. Moreover, the “% inhibition of air pouch PGE2 formation” value in assay [2] (10 mg/Kg) came to 32%. Further, the “% inhibition of writhing responses” value in assay [3] was determined as 9%. Also, the IC50 was 57 µM on COX I and 0.1 µM against COX II.

As for `COc1ccc2c(c1)c(CC(=O)O)c(C)n2C(=O)c1ccc(Cl)cc1` [Indomethacin, reference compound], in assay [2] (2-5 mg/Kg), the “% inhibition of air pouch PGE2 formation” value is listed as greater than 70%. Also, in assay [4], the “effect on cognitive decline” value is reported as “inhibit the cognitive decline of Alzheimer's patients”.

Usually IC50 stands for the point on the concentration scale where inhibition reaches its midpoint. A higher IC50 goes with lower potency.

These data come from US5886178A, “3-aroylbenzylpyridazinone derivatives” (Syntex (U.S.A.) Inc., priority 1997, dated 1999).
